Measurements taken from patent US11234992B2, “Methods and therapies for treating atherosclerosis and/or hyperlipidemia using oligosaccharides” (The Regents of the University of California, priority 2018, dated 2022).
Converted amounts (≈) assume the structure as drawn. “Also recorded” adds a separate entry of the source.

What was measured:
[1] = test system: IL-6; experiment: Attenuation of IL-6 cytokine expression (IC50); assay type: cell-based
Procedure: (§1) In particular, pooled HMOs (˜100 μg/mL) attenuated LPS-induced M1 polarization and importantly its subsequent cytokine expression (IL-1β, IL-6, etc. mRNA and protein levels) in a mouse macrophage cell line (RAW246) and in primary bone marrow derived macrophages (BMDM). […] Moreover, the attenuation effects remain when cells are stimulated with LipidA instead of LPS, excluding carbohydrate-carbohydrate interactions between LPS and HMOs above the cell surface.

[2] = test system: mice on a high fat diet (HFD); experiment: In vivo atherosclerosis/hyperlipidemia mouse model on high fat diet; settings: for inflammation in the liver, adipose tissue and arterial vessel wall / systemic secretion of pro-inflammatory cytokines like IL-1β and IL-6: in vitro and in vivo studies
Procedure: FIG. 1 provides a diagram of a mouse model used to test 3′SL effects on atherosclerosis. In particular, the mice are fed a high fat diet for two weeks prior to treatment in order to promote atherosclerosis in the mice. Treatment begins at the end of the second week with 3′SL or vehicle, whereby 3′SL or vehicle are administered to the mice twice daily at a dose of 90 mg/gavage. After 6 weeks of treatment, the mice are sacrificed and atherosclerosis lesions and plaques are assessed.
The complex pathology of atherosclerosis is characterized by the accumulation of lipids, inflammatory cells, and fibrous elements in large- and medium-sized arteries. According to the “response-to-retention” model, focal infiltration and retention of apolipoprotein B (apoB)-containing lipoproteins, such as low-density lipoproteins (LDLs), lipoprotein (a), and triglyceride-rich remnant particles (TRLs), in the subendothelial matrix of the tunica intima of arteries at atherosclerosis-prone sites initiates atherogenesis. Subsequent oxidation, lipolysis, proteolysis, and further aggregation of trapped LDL particles contribute to a chronic inflammatory response characterized by monocyte and T cell migration into the intima. Monocytes entering the plaque differentiate into macrophages and the expression of scavenger receptors result in internalization of modified lipoprotein particles. Lesion macrophages proliferate, accumulate massive amounts of cholesterol, and become lipid droplet-loaded “foam cells,” resulting in their retention in the lesion. Atherosclerosis is further characterized by the accumulation of M1-like macrophages and secretion of characteristic cytokines and chemokines. Priming of macrophages is sufficient to promote increased macrophage infiltration and inflammation in aorta, exacerbating atherosclerosis. […] Therefore, we will use Ldlr^−/− mice with a hypercholesterolemic background to study atherosclerosis development, which has several advantages: (1) cholesterol in Ldlr^−/− mice is mainly restricted to LDL particles resembling the situation in humans; (2) because of the minor importance of Ldlr in bone marrow derived cells related to atherosclerosis, the Ldlr^−/− mice are a very suitable model to study the role of candidate genes in these cells; (3) initiation of atherosclerotic plaque development can be highly controlled, as atherosclerosis will develop only upon feeding a high-fat/high-cholesterol diet.
Atherogenesis is determined by “en face” preparation of the entire aorta and Sudan IV staining to determine lipid infiltration as a measure for lesion surface as described in Gordts et al. (Arterioscler Thromb Vasc Biol. 29:1258-64 (2009)). In addition, the heart is isolated for sectioning of the aortic root to determine aortic root lesion area and qualitative assessment of the plaque phenotype. Aortic root cross-sectional atherosclerosis is measured by cutting 10 μm paraffin sections starting at the aortic valve plane and covering 1,000 μm in 100-μm increments. Two approaches are used to assess if 3′SL administration affects plaque stability and inflammatory cell composition in atherosclerotic plaques. Sections are immunostained using various antibodies to identify smooth muscle cells and macrophages and apoB content as well as the presence of oxidation-specific antibodies reflective of OxLDL. The extracellular content is visualized via staining using Oil red O (lipids), Hematoxylin and Eosin (necrotic core), Movat Pentachrome (proteoglycans), Masson-Goldner (collagen) and Verhoeffs van Gieson (elastin) staining protocols. As a measurement of the clinically relevant plaque vulnerability/stability in advanced lesions, fibrous cap thickness is determined by comparing serial sections each stained for smooth muscle cells and collagens, and the extent of necrosis will be quantified using imaging techniques as described in Gordts P L et al. (Cell Metabolism 20:813-26 (2014)). […]

[3] = test system: mouse macrophage cell line (RAW246); experiment: LPS-induced M1 polarization and cytokine expression in mouse macrophage cell line; assay type: cell-based; settings: preliminary results
Procedure: as §1
(§2) Here, the aim is to test whether the results translate to in vivo efficacy in a short-term and a long-term disease model of chronic inflammation. Rheumatoid arthritis (RA) is an inflammatory disorder that affects approximately 1% of the adult population worldwide. It is characterized by systemic and local inflammation that leads to cartilage and bone destruction. Collagen antibody-induced arthritis (CAIA) is a simple RA mouse model that can be used to address questions of pathogenic mechanisms and to screen candidate therapeutic agents. Arthritis is induced by the systemic administration of a cocktail of monoclonal antibodies that target various regions of collagen type II, which is one of the major constituents of articular cartilage matrix proteins, together with LPS. […]

[4] = test system: primary bone marrow derived macrophages (BMDM); experiment: LPS-induced M1 polarization and cytokine expression in primary bone marrow derived macrophages; assay type: cell-based; settings: primary mouse cells; preliminary results
Procedure: as §1, §2

[5] = test system: IL-1β; experiment: Attenuation of IL-1β cytokine expression (IC50); assay type: cell-based; settings: cell type not given
Procedure: as §1

[6] = test system: MAPK pathway; experiment: Downstream signalling in BMDM, MAPK pathway; assay type: cell-based, mouse; settings: in the absence and presence of LPS
Procedure: as §1
To elucidate the receptor, signaling pathway and downstream transcription regulated by 3′SL in BMDM, a three-prong approach is utilized: (a) Whole Transcriptome Shotgun Sequencing (WTSS) is used to identify differentially regulated genes. […] In both approaches, naive BMDM is compared with 3′SL-treated BMDM as well LPS-stimulated BMDM and LPS-treated BMDM co-treated with 3′SL; and (c) A 3′SL affinity matrix is generated to run macrophage plasma membrane and isolate 3′SL binding proteins. Proteins are eluted from the matrix using different salt gradients and analyzed by silvers staining. Relevant elution fraction and individual protein bands are isolated and prepared for mass-spectrometry analysis. The above three-way approach allows for the identification of the receptor, signaling pathway and downstream transcription that is regulated by 3′SL. […]

[7] = test system: LPS-activated Thp-1 cells (human cell line); experiment: Cytokine expression in LPS-activated Thp-1 cells; assay type: cell-based
[8] = summary statement, lipid metabolism

| Compound | therapeutic effect ([1]; test not specified, stated directly after the 3′SL cytokine IC50 values) | inflammation in the liver, adipose tissue and arterial vessel wall ([2]; summary statement) | systemic secretion of pro-inflammatory cytokines like IL-1β and IL-6 ([2]; summary statement) | LPS-induced M1 polarization and subsequent cytokine expression (IL-1b, IL-6, etc. mRNA and protein levels) [3] | LPS-induced M1 polarization and subsequent cytokine expression (IL-1b, IL-6, etc. mRNA and protein levels) [4] | IC50 ([1]; cell type not given) | IC50 [5] | down-stream activation of the MAPK pathway [6] | cytokine expression ([7]; LPS-activated Thp-1 cells) | LPS-induced M1 polarization and subsequent cytokine expression (IL-1b, IL-6, etc. mRNA and protein levels) ([7]; human cell line, preliminary results) | plasma triglycerides (TG) levels ([2]; mice on high fat diet, 3′SL twice daily 90 mg/gavage for 6 weeks vs vehicle, FIG. 2A) | cholesterol levels ([2]; mice on high fat diet, 3′SL twice daily 90 mg/gavage for 6 weeks vs vehicle, FIG. 2B) | lesion area of atherosclerotic lesions (En Face) ([2]; mice on high fat diet, 3′SL twice daily 90 mg/gavage for 6 weeks vs vehicle, FIG. 3A) | aortic plaque size ([2]; mice on high fat diet, 3′SL twice daily 90 mg/gavage for 6 weeks vs vehicle, FIG. 3B) | lipase activity [2, 8] | postprandial lipid clearance [2, 8] |
| --- | --- | --- | --- | --- | --- | --- | --- | --- | --- | --- | --- | --- | --- | --- | --- | --- |
| CC(=O)N[C@H]1[C@H]([C@H](O)[C@H](O)CO)O[C@@](OC[C@H]2O[C@@H](O[C@H]3[C@H](O)[C@@H](O)[C@H](O)O[C@@H]3CO)[C@H](O)[C@@H](O)[C@H]2O)(C(=O)O)C[C@@H]1O [6′SL, 6′-sialyllactose] | therapeutic effect | attenuate | suppresses |  |  |  |  |  |  |  |  |  |  |  |  |  |
| CC(=O)NC1C(O)CC(OC2C(O)C(CO)OC(OC(C(O)CO)C(O)C(O)C=O)C2O)(C(=O)O)OC1C(O)C(O)CO (stereo not drawn) [3′SL, 3′-sialyllactose] |  | attenuate | suppresses | attenuates | attenuates | ~16.5 µg/mL (≈ 26 µM) | ~44.4 µg/mL (≈ 70.1 µM) | regulate down-stream activation | effectively reduced | attenuates | lower plasma triglyceride levels; also recorded: significant decrease | lower cholesterol levels; also recorded: significant decrease | smaller lesion areas; also recorded: significantly reduced in size | smaller sized plaques; also recorded: significantly reduced | promoting | promoting |
